Assay results: patent US6451828B1, “Selective inhibition of glutaminase by bis-thiadiazoles” (priority 2000, dated 2002)

Legend:
[1] = target: T1, glutaminase activity in rat brain membranes (Rattus norvegicus, UniProt P13264); test: Inhibition of glutaminase activity in rat brain membranes; format: biochemical; conditions: PO4 conc. = 8 mM; FIG. 2
T1 construct: from tissue; host or cells: rat brain membranes
T1 sequence (P13264 55-674): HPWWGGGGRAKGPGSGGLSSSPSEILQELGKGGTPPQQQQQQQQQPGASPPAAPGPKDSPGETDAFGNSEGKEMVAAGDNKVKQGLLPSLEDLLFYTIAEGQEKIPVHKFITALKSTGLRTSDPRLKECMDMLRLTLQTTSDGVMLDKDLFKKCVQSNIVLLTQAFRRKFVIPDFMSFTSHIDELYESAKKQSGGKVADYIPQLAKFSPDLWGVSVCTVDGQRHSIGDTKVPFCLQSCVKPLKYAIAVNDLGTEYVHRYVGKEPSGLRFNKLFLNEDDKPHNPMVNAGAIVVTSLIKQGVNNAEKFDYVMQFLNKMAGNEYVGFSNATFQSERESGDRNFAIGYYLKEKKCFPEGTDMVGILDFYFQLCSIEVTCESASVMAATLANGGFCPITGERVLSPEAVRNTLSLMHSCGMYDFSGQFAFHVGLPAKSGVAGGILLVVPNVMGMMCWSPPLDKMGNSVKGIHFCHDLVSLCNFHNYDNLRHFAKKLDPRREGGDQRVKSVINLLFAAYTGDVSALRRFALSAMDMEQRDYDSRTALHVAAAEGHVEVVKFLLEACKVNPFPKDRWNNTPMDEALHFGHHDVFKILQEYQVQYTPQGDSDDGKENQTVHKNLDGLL
Method: Aliquots of 10 μL were removed at 0, 85, and 195 min, added to 90 μL 1:3 DMF/H2O, and analyzed for glutamate by HPLC following derivatization with o-phthaldialdehyde and 2-mercaptoethanol (see Lo et al. 1998).

microglia (BV-2) cells = test: Inhibition of microglial glutamate secretion; format: cell-based; conditions: Mus musculus
Method: As described in Wood, glutamate efflux from microglia is dependent on the presence of added external glutamine. […] Therefore, the concentration of glutamate in the culture medium can be used directly as a measure of glutamate production by these cells.
In assaying the invention compounds, microglia (BV-2) cells were cultured using standard methods, as described in Example 4. On the day of the experiment, cells were incubated in glutamine free medium for 1 to 1.5 hours, then glutamine and test compounds, dissolved in glutamine free medium, were added. Aliquots were removed at 2 h and 4 h for glutamate analysis.
Inhibition of Microglial Glutamate Secretion
BV-2 cells were cultured in 24 well plates using Dulbeccos minimal essential medium containing 10% heat inactivated fetal bovine serum, and grown to 70-80% confluency before use. On the day of the experiment, cells were placed in glutamine free medium for 1 to 1.5 hours. […] This solution was used to replace one half of the 0.5 mL culture medium volume at the end of the glutamine free incubation. Aliquots of 10 μL medium were removed at 2 h and 4 h and placed in 96 well microtiter plates with 90 μL DMF/water (1:9) for glutamate analysis.

[2] = test system: intestinal epithelial (CACO2) cells; test: Intracellular amino acids in intestinal epithelial cells; format: cell-based
Method: When the cells reached about 80% confluency, fresh glutamine was added to 2 mM. […] After 6.5 h of incubation, cultures were washed twice with phosphate buffered saline and extracted with 100 μL 1M perchloric acid. Extracts were neutralized with 30 μL of 5M potassium carbonate, centrifuged, and analyzed by HPLC for nucleotides, as described in Di Pierro et al. 1995, and for amino acids, as described in Lo et al. 1998. Results are shown in FIG. 5A (amino acids) and FIG. 5B (nucleotides).

[3] = CACO2, 10 nM to 10 μM, 6.5 h, FIG. 5A

## O=C(Cc1ccccc1)Nc1nnc(CCSCCc2nnc(NC(=O)Cc3ccccc3)s2)s1 [SNX-1770, bis-2′-[5-(phenylacetamido)-1,3,4-thiadiazol-2-yl]ethyl sulfide]
[1]
  Inhibition of glutaminase activity in rat brain membranes: inhibition of glutaminase activity
Microglia (BV-2) cells; BV-2, at 10 μM, read-out: Inhibition of glutamate efflux by microglia
  inhibition at 10 µM: ~85%
Microglia (BV-2) cells; BV-2 cells, glutamine added, FIG. 4, read-out: IC50, inhibition of glutamate efflux by microglia
  IC50: 80 to 120 nM
[2]; [3]
  Effect on glutamate in cell extracts: dose dependent decrease
  Effect on glycine or taurine in cell extracts: no effect
[2]; CACO2 cells, partial and specific
  Lowering of cellular glutamate: ~30%
[2]; at 10 μM, intestinal epithelial cells
  Effect on intracellular (non-glutamate) amino acids, including serine, glycine, arginine, alanine, taurine: no effect
